Entries after “also recorded” stand apart in the source; their conditions may differ.
Legend:
Assay type in all cases: cell-based, human
DU145 cells = assay: Annexin-V apoptosis assay by flow cytometry, DU145; details: DU145, 48 hr; Ptxl 1 nM, p28 50 μM, aurA/aurB 0.5-50 μM
Experimental: (§1) FIG. 7A-7D: Determination of apoptotic cell death. Prostate cancer cell lines (7A: LNCaP, 7B: DU145 and 7C: PC3) and normal prostate CRL11611 cells (7D) were exposed to the indicated agents for 48 hr and stained using apoptosis assay kits according to the manufacturer's instructions. The samples were analyzed by flow cytometry. Mean±SE (N=3).
(§2) After 48 hr, annexin-V apoptosis assays (Thermo Fisher Scientific) were conducted to detect apoptotic cells. At least 10,000 cells in each case were analyzed by FACS (RRC, UIC).

LNCaP cells = assay: Annexin-V apoptosis assay by flow cytometry, LNCaP; details: 48 hr, Ptxl 1 nM, p28 50 μM, aurA/aurB 0.5-50 μM
Experimental: as §1, §2

[1] = test system: normal prostate cells CRL11611; assay: MTT cell viability assay, normal prostate CRL11611 cells; details: normal prostate CRL11611 (p53+, AR+), 24-72 hr; paclitaxel 1 nM
Excerpt: FIG. 4A-4D: Effect of peptides on prostate cancer cell lines with differences in p53 and AR expression status. […] Control (PBS)-treated cells were considered to have 100% viability. Mean±SE (N=3).
(§3) Cell lines and culture: Human cancer and noncancer (immortalized and nonimmortalized) cell lines were obtained from the American Type Culture Collection [prostate cancer (PC3, DU145 and LNCaP), normal prostate (CRL11611), breast cancer (MCF-7), ovarian cancer (SK-OV3 adenocarcinoma), lung cancer (A549)]. MDD2 breast cancer cells (p53 dominant-negative) were provided courtesy of Dr Andrei V. Gudkov, Roswell Park Cancer Institute. 20 All cell lines were cultured in MEM-E (Invitrogen) supplemented with 10% heat-inactivated fetal bovine serum (Atlanta Biological, Inc.), 100 units/mL penicillin, and 100 μg/mL streptomycin at 37° C. in 5% CO2.
(§4) Cytotoxicity assay: The MTT assay was performed as we previously described (Cha et al., Cancer Research 2020, 80: 1615-1623).

MDD2 breast cancer cells = assay: MTT cell viability assay, MDD2 breast cancer cells; details: MDD2 (p53 dominant negative), 0.1-100 μM, 24 hr
Experimental: as §3, §4

[2] = test system: PC3 prostate cancer cells; assay: MTT cell viability assay, PC3 prostate cancer cells
Experimental: as §3

PC3 cells = assay: Annexin-V apoptosis assay by flow cytometry, PC3; details: PC3, 48 hr; Ptxl 1 nM, p28 50 μM, aurA/aurB 0.5-50 μM
Experimental: as §1, §2

MDA-MB-231 cells = assay: Aldolase A secretion and expression in MDA-MB-231 cells treated with purified azurin; details: MDA-MB-231, purified azurin 100 nM, 10 μM, 1 mM, 30 min
Experimental: FIG. 18A-18G: Induction of aldolase A secretion by host cells in the presence of P. aeruginosa. 18A. […] Aldolase secretion varied between the co-cultures with cancer and normal cells. […] 18B Correlation between the aldolase A and azurin levels in co-cultures of P. aeruginosa with cancer or normal cells. […] Secretion of aldolase into the culture supernatant was assessed by western blot analysis. 18D P. aeruginosa (OD=0.3) was treated with purified aldolase A protein at concentrations of 1 nM, 10 nM, 100 nM, and 1 μM for 30 min. […] MDA-MB-231 (18E) and Mel-2 (18F) cells were treated with purified azurin protein at concentrations of 100 nM, 10 μM, and 1 mM for 30 min. […] 18G Aldolase A secretion in the presence of P. aeruginosa is distance-dependent. […]
Aldolase A gene expression in MDA-MB-231 (black bars) and Mel-2 (white bars) cells was determined by RT-PCR (22A). […] 22B: Intracellular levels of aldolase A were assessed by western blot analysis with an anti-aldolase A antibody. […]
Western blotting: After running the NuPAGE, proteins were transferred to PVDF membranes (BioRad Laboratories Inc, Hercules, CA) which were blocked in SuperBlock (T20 TBS buffer, Thermo Fisher) for one hour. […] The signal was detected using enhanced chemiluminescence (ECL, Thermo Fisher Scientific). Quantitative analysis of the bands was performed with a computer-assisted imaging densitometer (UN-SCAN-IT gel version 5.1). […]

Row | Substance | apoptotic cell death (DU145 cells) | apoptotic cell death (LNCaP cells) | cytotoxic effect (MTT cell viability) [1] | effect on p53-inactive cancer cells (MTT) (MDD2 breast cancer cells) | effect on p53-inactive cancer cells (MTT) ([2]; PC3 (p53-null), 0.1-100 μM, 24 hr) | cytotoxic effect (MTT cell viability) ([2]; PC3 (p53-null, AR−), 24-72 hr, paclitaxel 1 nM) | inhibition rate ([2]; PC3, 100 μM for 72 hr) [%] | apoptotic cell death (PC3 cells) | aldolase A gene expression and intracellular levels (MDA-MB-231 cells) | aldolase A secretion into culture medium (western blot) (MDA-MB-231 cells)
1 | LVN GGD DVA AAV NTA AQN NAD ALF VPPP (LVNGGDDVAAAVNTAAQNNADALFVPPP) [aurB] | induced significant dose-dependent apoptosis | induced significant dose-dependent apoptosis | not evident | dose-dependent | dose-dependent | significantly induced dose-dependent cytotoxic effects; also recorded: more sensitive than the normal prostate cell line | ~50 | induced significant dose-dependent apoptosis |  | 
2 | azurin: 14 kDa periplasmic copper protein of 128 amino acids from P. aeruginosa; purified recombinant |  |  |  |  |  |  |  |  | without increasing gene expression or intracellular levels of aldolase A | secreted a considerable amount of human aldolase A
